Data published in PubChem BioAssay (NCI).
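GI50 marks 50% less growth. Definition used: TGI = concentration required for complete inhibition of growth.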

Key:
Experiment in all cases: NCI tumour cell line growth inhibition, 384-well format
786-0 renal = test system: 786-0 renal
A498 renal = test system: A498 renal
A549 NSCLC = test system: A549 NSCLC
ACHN renal = test system: ACHN renal
BT-549 breast = test system: BT-549 breast
CAKI-1 renal = test system: CAKI-1 renal
CCRF-CEM leukemia = test system: CCRF-CEM leukemia
COLO 205 colon = test system: COLO 205 colon
DU-145 prostate = test system: DU-145 prostate
EKVX NSCLC = test system: EKVX NSCLC
HCC-2998 colon = test system: HCC-2998 colon
HCT-116 colon = test system: HCT-116 colon
HCT-15 colon = test system: HCT-15 colon
HL-60(TB) leukemia = test system: HL-60(TB) leukemia
HOP-62 NSCLC = test system: HOP-62 NSCLC
HOP-92 NSCLC = test system: HOP-92 NSCLC
HS 578T breast = test system: HS 578T breast
HT29 colon = test system: HT29 colon
IGROV1 ovarian = test system: IGROV1 ovarian
K-562 leukemia = test system: K-562 leukemia
KM12 colon = test system: KM12 colon
LOX IMVI melanoma = test system: LOX IMVI melanoma
M14 melanoma = test system: M14 melanoma
MALME-3M melanoma = test system: MALME-3M melanoma
MCF7 breast = test system: MCF7 breast
MDA-MB-435 melanoma = test system: MDA-MB-435 melanoma
MDA-MB-468 breast = test system: MDA-MB-468 breast
MOLT-4 leukemia = test system: MOLT-4 leukemia
NCI-H226 lung = test system: NCI-H226 lung
NCI-H23 lung = test system: NCI-H23 lung
NCI-H322M lung = test system: NCI-H322M lung
NCI-H460 NSCLC = test system: NCI-H460 NSCLC
NCI-H522 lung = test system: NCI-H522 lung
NCI/ADR-RES ovarian = test system: NCI/ADR-RES ovarian
OVCAR-3 ovarian = test system: OVCAR-3 ovarian
OVCAR-4 ovarian = test system: OVCAR-4 ovarian
OVCAR-8 ovarian = test system: OVCAR-8 ovarian
PC-3 prostate = test system: PC-3 prostate
RPMI-8226 leukemia = test system: RPMI-8226 leukemia
RXF 393 renal = test system: RXF 393 renal
SF-268 CNS = test system: SF-268 CNS
SF-295 CNS = test system: SF-295 CNS
SF-539 CNS = test system: SF-539 CNS
SK-MEL-2 melanoma = test system: SK-MEL-2 melanoma
SK-MEL-28 melanoma = test system: SK-MEL-28 melanoma
SK-MEL-5 melanoma = test system: SK-MEL-5 melanoma
SK-OV-3 ovarian = test system: SK-OV-3 ovarian
SN12C renal = test system: SN12C renal
SNB-19 CNS = test system: SNB-19 CNS
SNB-75 CNS = test system: SNB-75 CNS
SW-620 colon = test system: SW-620 colon
TK-10 renal = test system: TK-10 renal
U251 glioblastoma = test system: U251 glioblastoma
UACC-257 melanoma = test system: UACC-257 melanoma
UACC-62 melanoma = test system: UACC-62 melanoma
MDA-MB-231 breast = test system: MDA-MB-231 breast

`CN(C)c1ccc(N)c2ccccc12` was tested, and the GI50 ([…]-0 renal) was 2160 nM, the TGI (786-0 renal) was 9600 nM and the GI50 (A498 renal) was 11900 nM. For the same molecule, the TGI (A498 renal) was 24300 nM, the GI50 (A549 NSCLC) was 4160 nM and the TGI (A549 NSCLC) was 16600 nM. It also gave a GI50 (ACHN renal) of 12100 nM, a TGI (ACHN renal) of 24600 nM and a GI50 (BT-549 breast) of 1500 nM. For the same molecule, the TGI (BT-549 breast) was 2840 nM, the GI50 (CAKI-1 renal) was 13100 nM and the TGI (CAKI-1 renal) was 26000 nM. It also gave a GI50 (CCRF-CEM leukemia) of 4650 nM, a TGI (CCRF-CEM leukemia) of 19100 nM and a GI50 (COLO 205 colon) of 2090 nM. For the same molecule, the TGI (COLO 205 colon) was 4210 nM, the GI50 (DU-145 prostate) was 1410 nM and the TGI (DU-145 prostate) was 2730 nM. It also gave a GI50 (EKVX NSCLC) of 1700 nM, a TGI (EKVX NSCLC) of 8100 nM and a GI50 (HCC-2998 colon) of 2400 nM. The TGI (HCC-2998 colon) was 16200 nM, the GI50 (HCT-116 colon) was 2200 nM and the TGI (HCT-116 colon) was 5930 nM. The GI50 (HCT-15 colon) was 1470 nM, the TGI (HCT-15 colon) was 3540 nM and the GI50 (HL-60(TB) leukemia) was 814 nM. The TGI (HL-60(TB) leukemia) was 2100 nM, the GI50 (HOP-62 NSCLC) was 1590 nM and the TGI (HOP-62 NSCLC) was 2980 nM. For the same molecule, the GI50 (HOP-92 NSCLC) was 5850 nM, the TGI (HOP-92 NSCLC) was 19500 nM and the GI50 (HS 578T breast) was 2440 nM. It also gave a TGI (HS 578T breast) of 6720 nM, a GI50 (HT29 colon) of 4550 nM and a TGI (HT29 colon) of 16400 nM. It also gave a GI50 (IGROV1 ovarian) of 1860 nM, a TGI (IGROV1 ovarian) of 16100 nM and a GI50 (K-562 leukemia) of 18400 nM. For the same molecule, the TGI (K-562 leukemia) was 32400 nM, the GI50 (KM12 colon) was 3650 nM and the TGI (KM12 colon) was 14800 nM. The GI50 (LOX IMVI melanoma) was 217 nM, the TGI (LOX IMVI melanoma) was 1560 nM and the GI50 (M14 melanoma) was 1500 nM. It also gave a TGI (M14 melanoma) of 2840 nM, a GI50 (MALME-3M melanoma) of 448 nM and a TGI (MALME-3M melanoma) of 1680 nM. It also gave a GI50 (MCF7 breast) of 1340 nM, a TGI (MCF7 breast) of 2640 nM and a GI50 (MDA-MB-435 melanoma) of 1360 nM. The TGI (MDA-MB-435 melanoma) was 2650 nM, the GI50 (MDA-MB-468 breast) was 591 nM and the TGI (MDA-MB-468 breast) was 4610 nM. The GI50 (MOLT-4 leukemia) was 802 nM, the TGI (MOLT-4 leukemia) was 2480 nM and the GI50 (NCI-H226 lung) was 1280 nM. The TGI (NCI-H226 lung) was 7630 nM, the GI50 (NCI-H23 lung) was 1470 nM and the TGI (NCI-H23 lung) was 2880 nM. For the same molecule, the GI50 (NCI-H322M lung) was 2100 nM, the TGI (NCI-H322M lung) was 3860 nM and the GI50 (NCI-H460 NSCLC) was 2930 nM. It also gave a TGI (NCI-H460 NSCLC) of 10400 nM, a GI50 (NCI-H522 lung) of 2770 nM and a TGI (NCI-H522 lung) of 11600 nM. For the same molecule, the GI50 (NCI/ADR-RES ovarian) was 11800 nM, the TGI (NCI/ADR-RES ovarian) was 24600 nM and the GI50 (OVCAR-3 ovarian) was 1160 nM. It also gave a TGI (OVCAR-3 ovarian) of 2520 nM, a GI50 (OVCAR-4 ovarian) of 397 nM and a TGI (OVCAR-4 ovarian) of 3650 nM. It also gave a GI50 (OVCAR-8 ovarian) of 5330 nM, a TGI (OVCAR-8 ovarian) of 17500 nM and a GI50 (PC-3 prostate) of 1340 nM. The TGI (PC-3 prostate) was 6240 nM, the GI50 (RPMI-8226 leukemia) was 1830 nM and the TGI (RPMI-8226 leukemia) was 5980 nM. It also gave a GI50 (RXF 393 renal) of 2680 nM, a TGI (RXF 393 renal) of 10500 nM and a GI50 (SF-268 CNS) of 8320 nM. For the same molecule, the TGI (SF-268 CNS) was 20500 nM, the GI50 (SF-295 CNS) was 7170 nM and the TGI (SF-295 CNS) was 20100 nM. It also gave a GI50 (SF-539 CNS) of 1750 nM, a TGI (SF-539 CNS) of 3300 nM and a GI50 (SK-MEL-2 melanoma) of 1260 nM. The TGI (SK-MEL-2 melanoma) was 2770 nM, the GI50 (SK-MEL-28 melanoma) was 1760 nM and the TGI (SK-MEL-28 melanoma) was 3710 nM. The GI50 (SK-MEL-5 melanoma) was 146 nM, the TGI (SK-MEL-5 melanoma) was 1610 nM and the GI50 (SK-OV-3 ovarian) was 10100 nM. For the same molecule, the TGI (SK-OV-3 ovarian) was 21800 nM, the GI50 (SN12C renal) was 1760 nM and the TGI (SN12C renal) was 3190 nM. For the same molecule, the GI50 (SNB-19 CNS) was 3400 nM, the TGI (SNB-19 CNS) was 11700 nM and the GI50 (SNB-75 CNS) was 2390 nM. The TGI (SNB-75 CNS) was 7530 nM, the GI50 (SW-620 colon) was 1640 nM and the TGI (SW-620 colon) was 3110 nM. The GI50 (TK-10 renal) was 11300 nM, the TGI (TK-10 renal) was 23500 nM and the GI50 (U251 glioblastoma) was 7750 nM. The TGI (U251 glioblastoma) was 20400 nM, the GI50 (UACC-257 melanoma) was 1040 nM and the TGI (UACC-257 melanoma) was 2220 nM. For the same molecule, the GI50 (UACC-62 melanoma) was 1240 nM and the TGI (UACC-62 melanoma) was 2500 nM.

For `CN1CCC(COc2cnc(-c3cccc(Cn4nc(-c5cccc(C#N)c5)ccc4=O)c3)nc2)CC1`, the GI50 ([…]-0 renal) was 1690 nM, the TGI (786-0 renal) was 3220 nM and the GI50 (A498 renal) was 2040 nM. The TGI (A498 renal) was 3620 nM, the GI50 (A549 NSCLC) was 2200 nM and the TGI (A549 NSCLC) was 4560 nM. For the same molecule, the GI50 (ACHN renal) was 2050 nM, the TGI (ACHN renal) was 3760 nM and the GI50 (BT-549 breast) was 1440 nM. The TGI (BT-549 breast) was 2760 nM, the GI50 (CAKI-1 renal) was 1730 nM and the TGI (CAKI-1 renal) was 3200 nM. For the same molecule, the GI50 (COLO 205 colon) was 2460 nM, the TGI (COLO 205 colon) was 5350 nM and the GI50 (DU-145 prostate) was 2530 nM. For the same molecule, the TGI (DU-145 prostate) was 5890 nM, the GI50 (EKVX NSCLC) was 2770 nM and the TGI (EKVX NSCLC) was 6490 nM. For the same molecule, the GI50 (HCC-2998 colon) was 3200 nM, the TGI (HCC-2998 colon) was 5670 nM and the GI50 (HCT-116 colon) was 1750 nM. For the same molecule, the TGI (HCT-116 colon) was 3160 nM, the GI50 (HCT-15 colon) was 1450 nM and the TGI (HCT-15 colon) was 2940 nM. The GI50 (HL-60(TB) leukemia) was 1570 nM, the TGI (HL-60(TB) leukemia) was 2910 nM and the GI50 (HOP-62 NSCLC) was 1960 nM. It also gave a TGI (HOP-62 NSCLC) of 3770 nM, a GI50 (HOP-92 NSCLC) of 1720 nM and a TGI (HOP-92 NSCLC) of 3400 nM. The GI50 (HS 578T breast) was 1480 nM, the TGI (HS 578T breast) was 2850 nM and the GI50 (HT29 colon) was 1740 nM. The TGI (HT29 colon) was 3150 nM, the GI50 (IGROV1 ovarian) was 2170 nM and the TGI (IGROV1 ovarian) was 4160 nM. For the same molecule, the GI50 (KM12 colon) was 2380 nM, the TGI (KM12 colon) was 4810 nM and the GI50 (LOX IMVI melanoma) was 1710 nM. It also gave a TGI (LOX IMVI melanoma) of 3100 nM, a GI50 (M14 melanoma) of 2090 nM and a TGI (M14 melanoma) of 3530 nM. The GI50 (MALME-3M melanoma) was 1590 nM, the TGI (MALME-3M melanoma) was 2930 nM and the GI50 (MCF7 breast) was 1680 nM. It also gave a TGI (MCF7 breast) of 3360 nM, a GI50 (MDA-MB-231 breast) of 1940 nM and a TGI (MDA-MB-231 breast) of 3410 nM. It also gave a GI50 (RXF 393 renal) of 1320 nM, a TGI (RXF 393 renal) of 2640 nM and a GI50 (SK-OV-3 ovarian) greater than 100000 nM. For the same molecule, the TGI (SK-OV-3 ovarian) was greater than 100000 nM, the GI50 (SN12C renal) was greater than 100000 nM and the TGI (SN12C renal) was greater than 100000 nM.
